Numbered stars: 1 amine (or outer) side, 2 acyl side, 3 side chain; on linkers, the order of the positions; unused ones are H or OH. Side chains are listed from the residue outwards. Peptide text beside a SMILES is read from it. * marks the point of attachment. γGlu = O=C(O)[C@H](CCC(=O)[*:2])N[*:1]; Palmitoyl = CCCCCCCCCCCCCCCC(=O)*
Key:
Assay in all cases: cAMP activity assay in assay medium (assay 1)
Assay type in all cases: cell-based
Human GIPr = biological target: T1, Human GIPr (Homo sapiens, UniProt P48546); settings: assay medium; Table 4; read-out: hGIPR EC50
T1 construct: expressed in transfected cells
T1 sequence (P48546 22-466): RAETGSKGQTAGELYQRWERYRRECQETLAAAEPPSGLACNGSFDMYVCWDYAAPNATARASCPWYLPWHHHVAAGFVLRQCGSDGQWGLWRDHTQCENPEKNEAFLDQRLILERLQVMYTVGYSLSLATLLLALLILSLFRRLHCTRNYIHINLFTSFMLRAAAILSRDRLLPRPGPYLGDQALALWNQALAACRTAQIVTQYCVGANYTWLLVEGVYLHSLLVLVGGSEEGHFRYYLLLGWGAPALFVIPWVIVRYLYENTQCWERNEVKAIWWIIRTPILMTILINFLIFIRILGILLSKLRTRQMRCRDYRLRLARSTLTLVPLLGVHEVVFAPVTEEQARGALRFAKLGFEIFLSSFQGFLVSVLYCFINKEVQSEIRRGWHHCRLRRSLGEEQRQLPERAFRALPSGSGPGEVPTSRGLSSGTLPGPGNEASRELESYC
Description: (§1) Biological Activity of Peptides in Cell-Based cAMP Activity Assay (Assay 1):
(§2) All sample dilutions were made in duplicate.

Human GlucR = biological target: T2, Human GlucR (Homo sapiens, UniProt P47871); settings: assay medium; Table 4; read-out: hGlucR EC50
T2 construct: expressed in transfected cells
Description: as §1, §2

Human GLP1R = Human GLP1R (Homo sapiens, UniProt P43220); parameters: expressed in transfected cells; settings: assay medium; Table 4; read-out: hGLP1R EC50
Description: as §1, §2

Human GLP1R, sequence (P43220 24-463): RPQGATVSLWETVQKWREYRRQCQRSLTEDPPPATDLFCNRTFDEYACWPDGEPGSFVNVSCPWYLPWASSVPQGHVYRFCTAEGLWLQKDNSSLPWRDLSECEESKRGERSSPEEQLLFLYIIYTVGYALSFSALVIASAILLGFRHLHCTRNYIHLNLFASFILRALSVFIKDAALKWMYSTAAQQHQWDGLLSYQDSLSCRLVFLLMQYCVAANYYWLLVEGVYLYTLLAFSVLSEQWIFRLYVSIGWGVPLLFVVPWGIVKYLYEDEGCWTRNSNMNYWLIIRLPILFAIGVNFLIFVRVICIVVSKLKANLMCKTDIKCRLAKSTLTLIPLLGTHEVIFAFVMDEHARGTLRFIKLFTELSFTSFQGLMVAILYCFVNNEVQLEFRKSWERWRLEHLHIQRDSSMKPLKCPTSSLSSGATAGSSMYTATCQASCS
T2 sequence (P47871 26-477): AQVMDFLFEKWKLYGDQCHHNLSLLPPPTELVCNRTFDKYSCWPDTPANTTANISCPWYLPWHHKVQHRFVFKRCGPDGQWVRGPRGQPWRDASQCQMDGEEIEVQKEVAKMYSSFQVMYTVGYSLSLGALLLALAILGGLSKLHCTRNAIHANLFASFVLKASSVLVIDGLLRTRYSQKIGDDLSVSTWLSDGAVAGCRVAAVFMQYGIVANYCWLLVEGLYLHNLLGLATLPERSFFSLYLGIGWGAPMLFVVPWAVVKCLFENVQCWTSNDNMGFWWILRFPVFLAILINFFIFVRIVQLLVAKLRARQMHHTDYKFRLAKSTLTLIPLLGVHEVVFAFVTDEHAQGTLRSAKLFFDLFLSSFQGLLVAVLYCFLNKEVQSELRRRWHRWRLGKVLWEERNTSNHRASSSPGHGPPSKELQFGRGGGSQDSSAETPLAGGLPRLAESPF

SMILES	EC50 (Human GIPr) [nM]	EC50 (Human GlucR) [nM]	EC50 (Human GLP1R) [nM]
CC(C)C[C@H](NC(=O)[C@H](Cc1ccc(O)cc1)NC(=O)[C@H](CCCCN)NC(=O)[C@H](CO)NC(=O)[C@H](Cc1ccc(O)cc1)NC(=O)[C@H](CC(=O)O)NC(=O)[C@H](CO)NC(=O)[C@@H](NC(=O)[C@H](Cc1ccccc1)NC(=O)[C@@H](NC(=O)CNC(=O)[C@H](CCC(N)=O)NC(=O)[C@H](CO)NC(=O)[C@@H](N)Cc1c[nH]cn1)[C@@H](C)O)[C@@H](C)O)C(=O)N[C@@H](CC(=O)O)C(=O)N[C@@H](CO)C(=O)N[C@@H](CCCNC(=N)N)C(=O)N[C@@H](CCCNC(=N)N)C(=O)N[C@@H](C)C(=O)N[C@@H](CCC(N)=O)C(=O)N[C@@H](CC(=O)O)C(=O)N[C@@H](Cc1ccccc1)C(=O)N[C@H](C(=O)N[C@@H](CCC(N)=O)C(=O)N[C@@H](Cc1c[nH]c2ccccc12)C(=O)N[C@@H](CC(C)C)C(=O)N[C@H](C(=O)N[C@@H](CCCNC(=N)N)C(=O)NCC(=O)NCC(=O)N[C@@H](CO)C(=O)N[C@@H](CO)C(=O)NCC(=O)NCC(=O)N[C@@H](CO)C(=O)N[C@@H](CO)C(N)=O)C(C)C)C(C)C [g316]	3.65	0.0106	0.0314
CCCCCCCCCCCCCCCC(=O)NCCCC[C@H](NC(=O)[C@H](CO)NC(=O)[C@@H]1CCCN1C(=O)[C@@H]1CCCN1C(=O)[C@@H]1CCCN1C(=O)[C@H](C)NC(=O)CNC(=O)[C@H](CO)NC(=O)[C@H](CO)NC(=O)[C@@H]1CCCN1C(=O)CNC(=O)CNC(=O)[C@H](CCCNC(=N)N)NC(=O)[C@@H](NC(=O)[C@H](CC(C)C)NC(=O)[C@H](Cc1c[nH]c2ccccc12)NC(=O)[C@H](CCC(N)=O)NC(=O)[C@@H](NC(=O)[C@H](Cc1ccccc1)NC(=O)[C@H](CC(=O)O)NC(=O)[C@H](CCC(N)=O)NC(=O)[C@H](C)NC(=O)[C@H](CCCNC(=N)N)NC(=O)[C@H](CCCNC(=N)N)NC(=O)[C@H](CO)NC(=O)[C@H](CC(=O)O)NC(=O)[C@H](CC(C)C)NC(=O)[C@H](Cc1ccc(O)cc1)NC(=O)[C@H](CCCCN)NC(=O)[C@H](CO)NC(=O)[C@H](Cc1ccc(O)cc1)NC(=O)[C@H](CC(=O)O)NC(=O)[C@H](CO)NC(=O)[C@@H](NC(=O)[C@H](Cc1ccccc1)NC(=O)[C@@H](NC(=O)CNC(=O)[C@H](CCC(N)=O)NC(=O)[C@H](CO)NC(=O)[C@@H](N)Cc1c[nH]cn1)[C@@H](C)O)[C@@H](C)O)C(C)C)C(C)C)C(N)=O [g320] (H-HSQGTFTSDYSKYLDSRRAQDFVQWLVRGGPSSGAPPPSK(Palmitoyl)-NH2; N-terminus assumed)	1.01	0.0032	0.00938
CCCCCCCCCCCCCCCC(=O)NCCCC[C@H](NC(=O)[C@H](C)NC(=O)[C@@H](NC(=O)[C@H](CC(N)=O)NC(=O)[C@H](CC(N)=O)NC(=O)[C@H](CCCNC(=N)N)NC(=O)[C@H](CC(N)=O)NC(=O)[C@H](CC(N)=O)NC(=O)[C@H](CCCCN)NC(=O)CNC(=O)CNC(=O)[C@H](CCCNC(=N)N)NC(=O)[C@@H](NC(=O)[C@H](CC(C)C)NC(=O)[C@H](Cc1c[nH]c2ccccc12)NC(=O)[C@H](CCC(N)=O)NC(=O)[C@@H](NC(=O)[C@H](Cc1ccccc1)NC(=O)[C@H](CC(=O)O)NC(=O)[C@H](CCC(N)=O)NC(=O)[C@H](C)NC(=O)[C@H](CCCNC(=N)N)NC(=O)[C@H](CCCNC(=N)N)NC(=O)[C@H](CO)NC(=O)[C@H](CC(=O)O)NC(=O)[C@H](CC(C)C)NC(=O)[C@H](Cc1ccc(O)cc1)NC(=O)[C@H](CCCCN)NC(=O)[C@H](CO)NC(=O)[C@H](Cc1ccc(O)cc1)NC(=O)[C@H](CC(=O)O)NC(=O)[C@H](CO)NC(=O)[C@@H](NC(=O)[C@H](Cc1ccccc1)NC(=O)[C@@H](NC(=O)CNC(=O)[C@H](CCC(N)=O)NC(=O)[C@H](CO)NC(=O)[C@@H](N)Cc1c[nH]cn1)[C@@H](C)O)[C@@H](C)O)C(C)C)C(C)C)[C@@H](C)CC)C(N)=O [g322] (H-HSQGTFTSDYSKYLDSRRAQDFVQWLVRGGKNNRNNIAK(Palmitoyl)-NH2; N-terminus assumed)	1.72	0.00355	0.0106
CCCCCCCCCCCCCCCC(=O)N[C@@H](CCC(=O)NCCCC[C@H](NC(=O)CNC(=O)CNC(=O)CNC(=O)CNC(=O)CNC(=O)CNC(=O)[C@H](CCCNC(=N)N)NC(=O)[C@@H](NC(=O)[C@H](CC(C)C)NC(=O)[C@H](Cc1c[nH]c2ccccc12)NC(=O)[C@H](CCC(N)=O)NC(=O)[C@@H](NC(=O)[C@H](Cc1ccccc1)NC(=O)[C@H](CC(=O)O)NC(=O)[C@H](CCC(N)=O)NC(=O)[C@H](C)NC(=O)[C@H](CCCNC(=N)N)NC(=O)[C@H](CCCNC(=N)N)NC(=O)[C@H](CO)NC(=O)[C@H](CC(=O)O)NC(=O)[C@H](CC(C)C)NC(=O)[C@H](Cc1ccc(O)cc1)NC(=O)[C@H](CCCCN)NC(=O)[C@H](CO)NC(=O)[C@H](Cc1ccc(O)cc1)NC(=O)[C@H](CC(=O)O)NC(=O)[C@H](CO)NC(=O)[C@@H](NC(=O)[C@H](Cc1ccccc1)NC(=O)[C@@H](NC(=O)CNC(=O)[C@H](CCC(N)=O)NC(=O)[C@H](CO)NC(=O)[C@@H](N)Cc1c[nH]cn1)[C@@H](C)O)[C@@H](C)O)C(C)C)C(C)C)C(N)=O)C(=O)O [g327]	12.8	0.00232	0.0193

Second part, the compound after the results:

EC50 (Human GIPr) [nM]	EC50 (Human GlucR) [nM]	EC50 (Human GLP1R) [nM]	SMILES
12.6	0.00282	0.0247	CCCCCCCCCCCCCCCC(=O)NCCCC[C@H](NC(=O)CNC(=O)CNC(=O)CNC(=O)CNC(=O)CNC(=O)CNC(=O)[C@H](CCCNC(=N)N)NC(=O)[C@@H](NC(=O)[C@H](CC(C)C)NC(=O)[C@H](Cc1c[nH]c2ccccc12)NC(=O)[C@H](CCC(N)=O)NC(=O)[C@@H](NC(=O)[C@H](Cc1ccccc1)NC(=O)[C@H](CC(=O)O)NC(=O)[C@H](CCC(N)=O)NC(=O)[C@H](C)NC(=O)[C@H](CCCNC(=N)N)NC(=O)[C@H](CCCNC(=N)N)NC(=O)[C@H](CO)NC(=O)[C@H](CC(=O)O)NC(=O)[C@H](CC(C)C)NC(=O)[C@H](Cc1ccc(O)cc1)NC(=O)[C@H](CCCCN)NC(=O)[C@H](CO)NC(=O)[C@H](Cc1ccc(O)cc1)NC(=O)[C@H](CC(=O)O)NC(=O)[C@H](CO)NC(=O)[C@@H](NC(=O)[C@H](Cc1ccccc1)NC(=O)[C@@H](NC(=O)CNC(=O)[C@H](CCC(N)=O)NC(=O)[C@H](CO)NC(=O)[C@@H](N)Cc1c[nH]cn1)[C@@H](C)O)[C@@H](C)O)C(C)C)C(C)C)C(N)=O [g326]
582	0.0105	0.0733	CCCCCCCCCCCCCCCC(=O)N[C@@H](CCC(=O)NCCCC[C@H](NC(=O)[C@H](CO)NC(=O)[C@H](CC(=O)O)NC(=O)[C@H](CC(C)C)NC(=O)[C@H](Cc1ccc(O)cc1)NC(=O)[C@H](CCCCN)NC(=O)[C@H](CO)NC(=O)[C@H](Cc1ccc(O)cc1)NC(=O)[C@H](CC(=O)O)NC(=O)[C@H](CO)NC(=O)[C@@H](NC(=O)[C@H](Cc1ccccc1)NC(=O)[C@@H](NC(=O)CNC(=O)[C@H](CCC(N)=O)NC(=O)[C@H](CO)NC(=O)[C@@H](N)Cc1c[nH]cn1)[C@@H](C)O)[C@@H](C)O)C(=O)N[C@@H](CCCNC(=N)N)C(=O)N[C@@H](C)C(=O)N[C@@H](CCC(N)=O)C(=O)N[C@@H](CC(=O)O)C(=O)N[C@@H](Cc1ccccc1)C(=O)N[C@H](C(=O)N[C@@H](CCC(N)=O)C(=O)N[C@@H](Cc1c[nH]c2ccccc12)C(=O)N[C@@H](CC(C)C)C(=O)N[C@H](C(=O)N[C@@H](C)C(=O)NCC(=O)NCC(N)=O)C(C)C)C(C)C)C(=O)O [g335]
19.6	0.00177	0.0366	CCCCCCCCCCCCCCCC(=O)N[C@@H](CCC(=O)N[C@@H](CCC(=O)NCCCC[C@H](NC(=O)[C@H](CO)NC(=O)[C@H](CC(=O)O)NC(=O)[C@H](CC(C)C)NC(=O)[C@H](Cc1ccc(O)cc1)NC(=O)[C@H](CCCCN)NC(=O)[C@H](CO)NC(=O)[C@H](Cc1ccc(O)cc1)NC(=O)[C@H](CC(=O)O)NC(=O)[C@H](CO)NC(=O)[C@@H](NC(=O)[C@H](Cc1ccccc1)NC(=O)[C@@H](NC(=O)CNC(=O)[C@H](CCC(N)=O)NC(=O)[C@H](CO)NC(=O)[C@@H](N)Cc1c[nH]cn1)[C@@H](C)O)[C@@H](C)O)C(=O)N[C@@H](CCCNC(=N)N)C(=O)N[C@@H](C)C(=O)N[C@@H](CCC(N)=O)C(=O)N[C@@H](CC(=O)O)C(=O)N[C@@H](Cc1ccccc1)C(=O)N[C@H](C(=O)N[C@@H](CCC(N)=O)C(=O)N[C@@H](Cc1c[nH]c2ccccc12)C(=O)N[C@@H](CC(C)C)C(=O)N[C@H](C(=O)N[C@@H](C)C(=O)NCC(=O)NCC(N)=O)C(C)C)C(C)C)C(=O)O)C(=O)O [g336]
545	1.93	0.0908	CCCCCCCCCCCCCCCC(=O)N[C@@H](CCC(=O)NCCCC[C@H](NC(=O)[C@H](CO)NC(=O)[C@H](CC(=O)O)NC(=O)[C@H](CC(C)C)NC(=O)[C@H](Cc1ccc(O)cc1)NC(=O)[C@H](CCCCN)NC(=O)[C@H](CO)NC(=O)[C@H](Cc1ccc(O)cc1)NC(=O)[C@H](CC(=O)O)NC(=O)[C@H](CO)NC(=O)[C@@H](NC(=O)[C@H](Cc1ccccc1)NC(=O)[C@@H](NC(=O)CNC(=O)[C@H](CCC(=O)O)NC(=O)[C@H](CO)NC(=O)[C@@H](N)Cc1c[nH]cn1)[C@@H](C)O)[C@@H](C)O)C(=O)N[C@@H](CCCNC(=N)N)C(=O)N[C@@H](C)C(=O)N[C@@H](CCC(N)=O)C(=O)N[C@@H](CC(=O)O)C(=O)N[C@@H](Cc1ccccc1)C(=O)N[C@H](C(=O)N[C@@H](CCC(N)=O)C(=O)N[C@@H](Cc1c[nH]c2ccccc12)C(=O)N[C@@H](CC(C)C)C(=O)N[C@H](C(=O)N[C@@H](C)C(=O)NCC(=O)NCC(N)=O)C(C)C)C(C)C)C(=O)O [g381] (H-HSEGTFTSDYSKYLDSK([γGlu-Palmitoyl])RAQDFVQWLVAGG-NH2; N-terminus assumed)
